Patent publication US5955440A, “Macrolide LHRH antagonists” (Abbott Laboratories, priority 1998, dated 1999)

How the values were obtained:
[1] = target: T1, rat pituitary cells (Rattus norvegicus, UniProt P30969); test: LH inhibition from rat pituitary cells, antagonist potency (pA2); format: cell-based; conditions: negative log of antagonist concentration shifting the leuprolide response curve to two-fold higher concentration, Table 2
T1 construct: endogenous in cells; host or cells: rat pituitary cells
T1 sequence (P30969 1-327): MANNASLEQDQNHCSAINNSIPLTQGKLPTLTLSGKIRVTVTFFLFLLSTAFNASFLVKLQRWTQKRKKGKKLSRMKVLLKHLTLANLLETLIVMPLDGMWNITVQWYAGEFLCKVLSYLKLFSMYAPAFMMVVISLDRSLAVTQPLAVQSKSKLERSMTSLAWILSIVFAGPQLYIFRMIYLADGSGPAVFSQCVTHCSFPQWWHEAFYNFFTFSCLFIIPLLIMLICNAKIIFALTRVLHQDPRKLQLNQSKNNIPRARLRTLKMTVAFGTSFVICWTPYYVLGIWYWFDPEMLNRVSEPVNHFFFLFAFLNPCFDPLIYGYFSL
Experimental: (§1) Representative compounds of the present invention were evaluated in in vitro tests for LHRH rat pituitary receptor binding (pKI) and for LH inhibition from rat pituitary cells for antagonist potency (pA2). The tests employed the methods detailed in F. Haviv, et al. J. Med. Chem., 32: 2340-2344 (1989). The receptor binding affinity (pKI) is the negative logarithm of the equilibrium dissociation constants.
The pA2 value is the negative logarithm of the concentration of antagonist which shifts the response curve produced by the agonist leuprolide to two-fold higher concentration. Leuprolide is the LHRH agonist having the structure pyro-Glu^1 -His^2 -Trp^3 -Ser^4 -Tyr^5 -D-Leu^6 -Leu^7 -Arg^8 -Pro^9 -NHEt and is disclosed and claimed in U.S. Pat. No. 4,005,063. Typically pA2 values of 7.0 or greater are indicative of good LHRH antagonist potency.

[2] = target: T2, LHRH rat pituitary receptor (Rattus norvegicus, UniProt P30969); test: LHRH rat pituitary receptor binding (pKI); conditions: negative logarithm of the equilibrium dissociation constants; for Ki: Table 1, read-out: receptor binding affinity (pKI) (converted)
T2 construct: from tissue; host or cells: rat pituitary
T2 sequence (P30969 1-327): T1 sequence (P30969 1-327)
Experimental: as §1

| Structure (SMILES) | Kb [1] [nM] | Ki [2] [nM] | pA2 [1] | receptor binding affinity (pKI) ([2]; Table 1) |
| --- | --- | --- | --- | --- |
| CCCN(C)[C@H]1C[C@@H](C)O[C@@H](O[C@@H]2[C@@H](C)[C@H](O[C@H]3C[C@@](C)(OC)[C@@H](O)[C@H](C)O3)[C@@H](C)C(=O)O[C@H](CC)[C@@]3(C)OC(=O)N(CCc4ccc(Cl)c(F)c4)[C@@H]3[C@@H](C)C(=O)[C@H](C)C[C@@]2(C)OC)[C@@H]1O [Example 16, 3'-N-Desmethyl-3'-N-n-propyl-11-deoxy-11-[carboxy-(4-chloro-3-fluorophenethylamino)]-6-O-methyl-erythromycin A 11,12-(cyclic carbamate)] | 32.4 | 3.98 | – | – |
| CC[C@H]1OC(=O)[C@H](C)[C@@H](O[C@H]2C[C@@](C)(OC)[C@@H](O)[C@H](C)O2)[C@H](C)[C@@H](O[C@@H]2O[C@H](C)C[C@H](N(C)C3CCC3)[C@H]2O)[C@](C)(OC)C[C@@H](C)C(=O)[C@H](C)[C@H]2N(CCc3ccc(Cl)cc3)C(=O)O[C@]12C [Example 20] | – | – | 7.53 | 8.49 |
| CC[C@H]1OC(=O)[C@H](C)[C@@H](O[C@H]2C[C@@](C)(OC)[C@@H](O)[C@H](C)O2)[C@H](C)[C@@H](O[C@@H]2O[C@H](C)C[C@H](N(C)CC)[C@H]2O)[C@](C)(OC)C[C@@H](C)C(=O)[C@H](C)[C@H]2N(CCc3ccc(Cl)cc3)C(=O)O[C@]12C [Example 21, 3'-N-Desmethyl-3'-N-ethyl-11-deoxy-11-[carboxy-(4-chlorophenethylamino)]-6-O-methyl-erythromycin A 11,12-(cyclic carbamate)] | 55 | 6.17 | – | – |
| CC[C@H]1OC(=O)[C@H](C)[C@@H](O[C@H]2C[C@@](C)(OC)[C@@H](O)[C@H](C)O2)[C@H](C)[C@@H](O[C@@H]2O[C@H](C)C[C@H](N(C)C(C)C)[C@H]2O)[C@](C)(OC)C[C@@H](C)C(=O)[C@H](C)[C@H]2N(CCc3ccc(Cl)cc3)C(=O)O[C@]12C [Example 22, 3'-N-Desmethyl-3'-N-isopropyl-11-deoxy-11-[carboxy-(4-chlorophenethylamino)]-6-O-methyl-erythromycin A 11,12-(cyclic carbamate)] | 30.2 | 4.47 | – | – |
| CC[C@H]1OC(=O)[C@H](C)[C@@H](O[C@H]2C[C@@](C)(OC)[C@@H](O)[C@H](C)O2)[C@H](C)[C@@H](O[C@@H]2O[C@H](C)C[C@H](N(C)C3CCCC3)[C@H]2O)[C@](C)(OC)C[C@@H](C)C(=O)[C@H](C)[C@H]2N(CCc3ccc(Cl)cc3)C(=O)O[C@]12C [Example 23, 3'-N-Desmethyl-3'-N-cyclopentyl-11-deoxy-11-[carboxy-(4-chlorophenethylamino)]-6-O-methyl-erythromycin A 11,12-(cyclic carbamate)] | 50.1 | 6.76 | – | – |
| CCCN(C)[C@H]1C[C@@H](C)O[C@@H](O[C@@H]2[C@@H](C)[C@H](O[C@H]3C[C@@](C)(OC)[C@@H](O)[C@H](C)O3)[C@@H](C)C(=O)O[C@H](CC)[C@@]3(C)OC(=O)N(CCc4cccc(Cl)c4)[C@@H]3[C@@H](C)C(=O)[C@H](C)C[C@@]2(C)OC)[C@@H]1O [Example 25, 3'-N-Desmethyl-3'-N-n-propyl-11-deoxy-11-[carboxy-(3-chlorophenethylamino)]-6-O-methyl-erythromycin A 11,12-(cyclic carbamate)] | 37.2 | 4.17 | – | – |
| CC[C@H]1OC(=O)[C@H](C)[C@@H](O[C@H]2C[C@@](C)(OC)[C@@H](O)[C@H](C)O2)[C@H](C)[C@@H](O[C@@H]2O[C@H](C)C[C@H](N(C)C3CCCC3)[C@H]2O)[C@](C)(OC)C[C@@H](C)C(=O)[C@H](C)[C@H]2N(CCc3ccc(F)c(Cl)c3)C(=O)O[C@]12C [Example 26, 3'-N-Desmethyl-3'-N-cyclopentyl-11-deoxy-11-[carboxy-(3-chloro-4-fluorophenethylamino)]-6-O-methyl-erythromycin A 11,12-(cyclic carbamate)] | 2.19 | 1.48 | – | – |
| CC[C@H]1OC(=O)[C@H](C)[C@@H](O[C@H]2C[C@@](C)(OC)[C@@H](O)[C@H](C)O2)[C@H](C)[C@@H](O[C@@H]2O[C@H](C)C[C@H](N(C)C3CCC3)[C@H]2O)[C@](C)(OC)C[C@@H](C)C(=O)[C@H](C)[C@H]2N(CCc3ccc(F)c(Cl)c3)C(=O)O[C@]12C [Example 27, 3'-N-Desmethyl-3'-N-cyclobutyl-11-deoxy-11-[carboxy-(3-chloro-4-fluorophenethylamino)]-6-O-methyl-erythromycin A 11,12-(cyclic carbamate)] | 3.8 | 1.55 | – | – |
| CC[C@H]1OC(=O)[C@H](C)[C@@H](O[C@H]2C[C@@](C)(OC)[C@@H](O)[C@H](C)O2)[C@H](C)[C@@H](O[C@@H]2O[C@H](C)C[C@H](N(C)C(C)C)[C@H]2O)[C@](C)(OC)C[C@@H](C)C(=O)[C@H](C)[C@H]2N(CCc3ccc(F)c(Cl)c3)C(=O)O[C@]12C [Example 28, 3'-N-Desmethyl-3'-N-isopropyl-11-deoxy-11-[carboxy-(3-chloro-4-fluorophenethylamino)]-6-O-methyl-erythromycin A 11,12-(cyclic carbamate)] | 3.02 | 0.324 | – | – |
| CC[C@H]1OC(=O)[C@H](C)[C@@H](O[C@H]2C[C@@](C)(OC)[C@@H](O)[C@H](C)O2)[C@H](C)[C@@H](O[C@@H]2O[C@H](C)C[C@H](N(C)CC3CC3)[C@H]2O)[C@](C)(OC)C[C@@H](C)C(=O)[C@H](C)[C@H]2N(CCc3ccc(F)c(Cl)c3)C(=O)O[C@]12C [Example 29, 3'-N-Desmethyl-3'-N-cyclopropylmethyl-11-deoxy-11-(3-chloro-4-fluorophenethylamino)-6-O-methyl-erythromycin A 11,12-(cyclic carbamate)] | 1.07 | 0.537 | – | – |
| CC[C@H]1OC(=O)[C@H](C)[C@@H](O[C@H]2C[C@@](C)(OC)[C@@H](O)[C@H](C)O2)[C@H](C)[C@@H](O[C@@H]2O[C@H](C)C[C@H](N(C)C3CCC3)[C@H]2O)[C@](C)(OC)C[C@@H](C)C(=O)[C@H](C)[C@H]2N(CCc3ccc(F)c(F)c3)C(=O)O[C@]12C [Example 30, 3'-N-Desmethyl-3'-N-cyclobutyl-11-deoxy-11-[carboxy-(3,4-difluorophenethylamino)]-6-O-methyl-erythromycin A 11,12-(cyclic carbamate)] | 5.25 | 0.513 | – | – |
| CC[C@H]1OC(=O)[C@H](C)[C@@H](O[C@H]2C[C@@](C)(OC)[C@@H](O)[C@H](C)O2)[C@H](C)[C@@H](O[C@@H]2O[C@H](C)C[C@H](N(C)C3CCCC3)[C@H]2O)[C@](C)(OC)C[C@@H](C)C(=O)[C@H](C)[C@H]2N(CCc3ccc(F)c(F)c3)C(=O)O[C@]12C [Example 31, 3'-N-Desmethyl-3'-N-cyclopentyl-11-deoxy-11-[carboxy-(3,4-difluorophenethylamino)]-6-O-methyl-erythromycin A 11,12-(cyclic carbamate)] | 5.75 | 0.269 | – | – |
| CCCN(C)[C@H]1C[C@@H](C)O[C@@H](O[C@@H]2[C@@H](C)[C@H](O[C@H]3C[C@@](C)(OC)[C@@H](O)[C@H](C)O3)[C@@H](C)C(=O)O[C@H](CC)[C@@]3(C)OC(=O)N(CCc4ccc(F)c(F)c4)[C@@H]3[C@@H](C)C(=O)[C@H](C)C[C@@]2(C)OC)[C@@H]1O [Example 32, 3'-N-Desmethyl-3'-N-n-propyl-11-deoxy-11-[carboxy-(3,4-difluorophenethylamino)]-6-O-methyl-erythromycin A 11,12-(cyclic carbamate)] | 26.3 | 0.0832 | – | – |
| CC[C@H]1OC(=O)[C@H](C)[C@@H](O[C@H]2C[C@@](C)(OC)[C@@H](O)[C@H](C)O2)[C@H](C)[C@@H](O[C@@H]2O[C@H](C)C[C@H](N(C)CC3CC3)[C@H]2O)[C@](C)(OC)C[C@@H](C)C(=O)[C@H](C)[C@H]2N(CCc3ccc(F)c(F)c3)C(=O)O[C@]12C [Example 33, 3'-N-Desmethyl-3'-N-cyclopropylmethyl-11-deoxy-11-[carboxy-(3,4-difluorophenethylamino)]-6-O-methyl-erythromycin A 11,12-(cyclic carbamate)] | 3.98 | 0.676 | – | – |
